Assays:
[1] = system: haemoglobin; details: Meyer 1988; cited from earlier work
[2] = system: normal bronchial tone; test: NO effects on normal bronchial tone; type: in vivo, Hartley strain guinea pigs; details: 300 ppm NO, without methacholine infusion (FIG. 8)
Method: (§1) Male Hartley strain guinea pigs (300-440g body wt) were anesthetized with α-chloralose (50 mg/kg) and urethane (500 mg/kg) (Drazen et al., J. Appl. Physiol. 48:613-618, 1980). A tracheostomy was performed, and the animals were intubated with a tubing adaptor (ID 1.65 mm) and ventilated with a small animal ventilator (Harvard Apparatus, a division of Ealing Scientific, Natick, Mass.) at 8 ml/kg and 60 breaths/min. A jugular vein was cannulated for intravenous administration of drugs. The chest was opened by bilateral excision of a portion of the ribs anteriorly so that the lungs were exposed to atmospheric pressure (Shore and Drazen, J. Appl. Physiol. 67:2504-2511, 1989). A positive end expiratory pressure of 3-4 cmH2 O was provided.
(§2) Guinea pigs were then placed inside a plethysmograph (Amdur and Mead, Am. J. Physiol. 192:363-368, 1958), that was connected to a large reservoir containing copper mesh to maintain the plethysmograph isothermal. Plethysmograph pressure was measured with a differential pressure transducer (Celesco, Canoga Park, Calif.); the opposite side of this transducer was connected to a similar reservoir. Pressure at the airway opening was measured from a side tap in the tracheal canula. Transpulmonary pressure was measured with a differential pressure transducer (Celesco) as the difference between airway opening pressure and the pressure inside the plethysmograph. […]

[3] = system: heparin-protamine-induced elevated PAP and PVR; type: in vivo, sheep
Method: The heparin-protamine reaction was induced in these nine sheep by first administering heparin (200 U/kg; Elkins-Sinn, Cherry Hill, N.J.) followed five minutes later (at time zero) by protamine (2 mg/kg; Elkins-Sinn). Each of these sheep also served as a control. Six additional sheep were given an intravenous infusion of sodium nitroprusside (40 μg/kg/min body weight; Elkins-Sinn) while breathing air (data not shown).

[4] = system: lungs; test: Light microscopy of lungs for morphological changes caused by breathing NO; type: in vivo; details: 80 ppm NO for 180 min, three lambs vs control lungs
Method: Lungs from three lambs which had breathed 80 ppm NO for 180 min were studied by light microscopy for evidence of morphological changes caused by breathing NO.

[5] = system: methacholine bronchoconstriction; test: Tolerance to 1 hour of NO inhalation during methacholine infusion; type: in vivo, Hartley strain guinea pigs
Method: as §1
Guinea pigs were then placed inside a plethysmograph (Amdur and Mead, Am. J. Physiol. 192:363-368, 1958), that was connected to a large reservoir containing copper mesh to maintain the plethysmograph isothermal. Plethysmograph pressure was measured with a differential pressure transducer (Celesco, Canoga Park, Calif.); the opposite side of this transducer was connected to a similar reservoir. Pressure at the airway opening was measured from a side tap in the tracheal canula. Transpulmonary pressure was measured with a differential pressure transducer (Celesco) as the difference between airway opening pressure and the pressure inside the plethysmograph. […] Tidal volume was measured by recording the pressure changes in the body plethysmograph. Volume, flow, and transpulmonary pressure signals were recorded on a strip chart (General Scanning, Watertown, Mass.). Pulmonary resistance and dynamic compliance were calculated by a computer program according to the method of von Neergard and Wirz (Z. Klin. Med. 105:35-50, 1927; Z. Klin. Med. 105:52-82, 1927).
The apparatus and conditions used are diagrammed in FIG. 7. […] With volumetrically calibrated flowmeters, varying quantities of NO mixed with N2 were substituted for pure N2 to obtain the desired No concentration at an inspired oxygen concentration (FIO2) of 0.30-0.32. […]

[6] = system: methacholine bronchoconstriction; test: NO and terbutaline aerosol during methacholine infusion; type: in vivo, Hartley strain guinea pigs; details: NO gas before or after inhaled terbutaline
Method: as §1, §2

Compound: [N]=O [NO, nitric oxide]
- binding to haemoglobin [1]: the most rapidly binding ligand to haemoglobin so far discovered
- baseline bronchomotor tone [2]: decreased the baseline bronchomotor tone
- systemic hypotension ([3]; 180 ppm inhaled NO vs SNP): without the latter drug's propensity to cause marked systemic hypotension
- lowering of heparin-protamine-induced PAP ([3]; 180 ppm inhaled NO vs SNP 40 μg/kg/min): comparable to 40 μg/kg/min SNP infusion
- prevention of elevated PAP and PVR ([3]; 180 ppm inhaled NO, nine awake sheep): prevent the elevated PAP and PVR
- morphological changes of lungs [4]: No significant differences
- tolerance ([5]; 100 ppm NO, one hour): no tolerance
- airway resistance ([5]; 100 ppm NO, one hour (FIG. 13)): effectively and stably reduced the airway resistance for one hour
- methemoglobin levels ([5]; after one hour of breathing 100 ppm NO): below 5%
- bronchodilating effects of NO plus terbutaline [6]: additive

— patent US5873359A, “Methods and devices for treating pulmonary vasoconstriction and asthma” (The General Hospital Corporation, priority 1994, dated 1999)
